The text below walks through data of ChEMBL document CHEMBL1128181, “Structure-based design of nonpeptidic HIV protease inhibitors from a cyclooctylpyranone lead structure” (J Med Chem, 1995).

SMILES strings stand for the structures.

A word on the Ki: it is the equilibrium dissociation constant of an inhibitor or competing ligand from its target. Higher therefore signals lower affinity.

The test concerns the target Human immunodeficiency virus type 1 protease (Human immunodeficiency virus 1, UniProt Q72874). The test can be described thus: Inhibitory activity against HIV-I protease.
The compound `CC(C)(C)OC(=O)N[C@@H](Cc1cnc[nH]1)C(=O)Nc1cccc(C(c2c(O)c3c(oc2=O)CCCCCC3)C2CC2)c1` (stereo partly specified) returned an inhibition constant Ki of 3 nM. Next, `CCCCC1CCCCCCc2c1oc(O)c(C(c1ccccc1)C1CC1)c2=O` (stereo unspecified): 31 nM; `CCCC1CCCCCCc2c1oc(O)c(C(c1ccccc1)C1CC1)c2=O` (stereo in doubt; 11e): 9 nM. Next, `C[C@H](NC(=O)OC(C)(C)C)C(=O)Nc1cccc(C(c2c(O)c3c(oc2=O)CCCCCC3)C2CC2)c1` (stereo partly specified): 6.9 nM; `C[C@@H](NC(=O)OC(C)(C)C)C(=O)Nc1cccc(C(c2c(O)c3c(oc2=O)CCCCCC3)C2CC2)c1` (stereo partly specified): 32 nM. Next, `CC(C)(C)OC(=O)N1CCC[C@H]1C(=O)Nc1cccc(C(c2c(O)c3c(oc2=O)CCCCCC3)C2CC2)c1` (stereo partly specified): 43 nM; `CCC(c1ccccc1)c1c(O)c2c(oc1=O)C(C)CCCCCC2` (stereo unspecified): 330 nM; `O=c1c2c(oc(O)c1C(c1ccccc1)C1CC1)CCCCCC2` (stereo unspecified): 96 nM. For `CC(C)CCC1CCCCCCc2c1oc(O)c(C(c1ccccc1)C1CC1)c2=O` (stereo unspecified), the affinity corresponds to a Ki of 50 nM. Next, `O=C(Cc1ccccc1)Nc1cccc(C(c2c(O)oc3c(c2=O)CCCCCC3)C2CC2)c1` (stereo unspecified): 33 nM; `CC(C)CC1CCCCCCc2c1oc(O)c(C(c1ccccc1)C1CC1)c2=O` (stereo unspecified): 30 nM; `CC(C)(C)OC(=O)NCC(=O)Nc1cccc(C(c2c(O)c3c(oc2=O)CCCCCC3)C2CC2)c1` (stereo unspecified): 5.5 nM. Next, `O=c1c2c(oc(O)c1C(c1ccccc1)C1CC1)C(CC1CC1)CCCCC2` (stereo unspecified): 24 nM. Next, `CC(C)(C)OC(=O)NCCC(=O)Nc1cccc(C(c2c(O)c3c(oc2=O)CCCCCC3)C2CC2)c1` (stereo unspecified): 4 nM; `COCCC1CCCCCc2c1oc(O)c(C(c1ccccc1)C1CC1)c2=O` (stereo unspecified): 28 nM; `O=c1c2c(oc(O)c1C(C1CC1)C1CC1)CCCCCCC2`: 57 nM. As to `CCCC1CCCCCCc2c1oc(O)c(C(c1ccccc1)C1CC1)c2=O` (stereo in doubt; 11), affinity was put at a Ki of 26 nM. This Ki is about 2.2-fold lower than that of the compound before. Turning to `CCC(c1ccccc1)c1c(O)c2c(oc1=O)C(Cc1ccccc1)CCCCCC2` (stereo unspecified), the Ki was 266 nM. Next, `OC1=C(C(c2ccccc2)C2CC2)COC2=C1CCCCCCC2` (stereo unspecified): 11.7 nM. Next, `CCC(c1ccccc1)c1c(O)c2c(oc1=O)CCCCCCC2` (stereo unspecified): 58.3 nM; `O=c1c2c(oc(O)c1C(c1ccccc1)C1CC1)C(CC1CC1)CCCCCC2` (stereo unspecified): 24 nM; `O=C(/C=C/c1ccccc1)Nc1cccc(C(c2c(O)oc3c(c2=O)CCCCCC3)C2CC2)c1` (stereo unspecified): 470 nM.

Regarding `CC(C)(C)OC(=O)NCCCC(=O)Nc1cccc(C(c2c(O)c3c(oc2=O)CCCCCC3)C2CC2)c1` (stereo unspecified), the Ki came out at 14 nM. Compared with the last compound, the Ki is about 34-fold lower. Next, `O=C(Nc1cccc(C(c2c(O)oc3c(c2=O)CCCCCC3)C2CC2)c1)c1ccc(F)cc1` (stereo unspecified): 55 nM; `O=C(Nc1cccc(C(c2c(O)oc3c(c2=O)CCCCCC3)C2CC2)c1)c1ccccc1` (stereo unspecified): 42 nM; `CC(C)(C)OC(=O)N[C@H](Cc1cnc[nH]1)C(=O)Nc1cccc(C(c2c(O)c3c(oc2=O)CCCCCC3)C2CC2)c1` (stereo partly specified): 11 nM.

`CCC1CCCCCCc2c1oc(O)c(C(c1ccccc1)C1CC1)c2=O` (stereo unspecified) registered a Ki of 33 nM. On to `O=c1c2c(oc(O)c1C(c1ccccc1)C1CC1)C(CC1CCCCO1)CCCCCC2` (stereo unspecified), for which the inhibition constant (Ki) came out at 120 nM. Next, `O=C(Nc1ccccc1)Nc1cccc(C(c2c(O)oc3c(c2=O)CCCCCC3)C2CC2)c1` (stereo unspecified): 450 nM. Turning to `CCNC(=O)Nc1cccc(C(c2c(O)c3c(oc2=O)CCCCCC3)C2CC2)c1` (stereo unspecified), affinity was put at a Ki of 72 nM. Next, `CCCC(=O)Nc1cccc(C(c2c(O)c3c(oc2=O)CCCCCC3)C2CC2)c1` (stereo unspecified): 24 nM.
